Values belong to the compound of their own block, whether it stands above or below them.
Tests used:
[1] = target: T1, cyclooxygenase 1 (COX-1) (Ovis aries, UniProt P05979); assay: Inhibition of COX-1 (arachidonic acid incubation, PGE2 formation by malondialdehyde quantitation); conditions: 300 μM; COX-1 derived from ram seminal vesicles
T1 sequence (P05979 25-600): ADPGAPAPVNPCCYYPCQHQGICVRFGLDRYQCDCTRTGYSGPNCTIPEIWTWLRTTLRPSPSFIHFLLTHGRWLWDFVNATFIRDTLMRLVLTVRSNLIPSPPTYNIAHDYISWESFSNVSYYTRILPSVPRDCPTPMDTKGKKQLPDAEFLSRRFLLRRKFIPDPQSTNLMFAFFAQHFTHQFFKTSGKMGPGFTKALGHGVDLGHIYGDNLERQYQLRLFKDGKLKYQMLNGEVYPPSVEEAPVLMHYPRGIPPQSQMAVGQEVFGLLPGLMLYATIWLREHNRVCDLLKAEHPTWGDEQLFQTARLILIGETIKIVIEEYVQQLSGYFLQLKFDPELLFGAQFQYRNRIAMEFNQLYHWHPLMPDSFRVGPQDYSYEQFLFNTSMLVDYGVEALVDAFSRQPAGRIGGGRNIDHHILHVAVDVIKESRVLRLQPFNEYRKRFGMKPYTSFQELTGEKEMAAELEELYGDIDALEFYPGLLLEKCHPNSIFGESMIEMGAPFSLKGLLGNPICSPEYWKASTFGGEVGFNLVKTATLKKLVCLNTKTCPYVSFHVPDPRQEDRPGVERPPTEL
Protocol: (§1) The inhibition of COX-I was measured by incubating arachidonic acid with COX-1 derived from ram seminal vesicles. The inhibition of COX-2 was measured by incubation of arachidonic acid with COX-2 derived from sheep placenta. […] In each assay, the formation of prostaglandin E2 (PGE2) was measured by spectrophotometric quantitation of malondialdehyde.

[2] = target: T2, cyclooxygenase 2 (COX-2) (Ovis aries, UniProt P79208); assay: Inhibition of COX-2 (arachidonic acid incubation, PGE2 formation by malondialdehyde quantitation); conditions: 300 μM; COX-2 derived from sheep placenta
T2 sequence (P79208 17-603): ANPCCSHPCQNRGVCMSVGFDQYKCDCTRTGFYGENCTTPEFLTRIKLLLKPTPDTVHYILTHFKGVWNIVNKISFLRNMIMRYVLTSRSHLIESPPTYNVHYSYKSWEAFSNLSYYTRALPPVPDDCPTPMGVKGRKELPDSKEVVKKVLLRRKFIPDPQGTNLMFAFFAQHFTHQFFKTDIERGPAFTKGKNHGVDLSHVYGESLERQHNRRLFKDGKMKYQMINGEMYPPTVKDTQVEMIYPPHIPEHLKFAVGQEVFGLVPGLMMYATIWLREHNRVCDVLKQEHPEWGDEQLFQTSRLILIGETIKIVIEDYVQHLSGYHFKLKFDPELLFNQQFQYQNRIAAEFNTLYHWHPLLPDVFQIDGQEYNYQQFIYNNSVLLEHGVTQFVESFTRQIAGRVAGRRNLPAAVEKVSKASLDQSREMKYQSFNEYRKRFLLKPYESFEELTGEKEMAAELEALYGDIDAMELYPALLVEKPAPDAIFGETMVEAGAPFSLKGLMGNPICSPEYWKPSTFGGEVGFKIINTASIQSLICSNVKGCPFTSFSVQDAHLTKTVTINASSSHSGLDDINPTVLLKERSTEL
Protocol: as §1

[3] = system: adjuvant-induced footpad edema; assay: Adjuvant assay (adjuvant-induced footpad edema); type: in vivo; conditions: Male Lewis rats; 3 mg/kg, po; dosing day 14 to day 21 post-adjuvant
Protocol: This assay is a model for chronic inflammation. See, for example, […], “Rat Adjuvant Arthritis: A Model of Chronic Inflammation,” Pharmacological Methods in the Control of Inflammation, 363-380 (1989) and references cited therein. In this assay, Male Lewis rats weighing between 180-220 g were lightly anesthetized with an ip injection of 30 mg/kg of sodium pentobarbital (50 mg/mL). Desiccated Mycobacterium butyrium (Difco, 20 mg/mL) suspended in mineral oil was injected (50 μL) at both sides of the base of the tail under the skin. A line was tattooed on both rear paws at 5 mm above the angle of the ankle. The paw volumes, under the line, were measured by volume displacement using a plethysmonmeter (Ugo Basile) at the day of adjuvant injection (day 0) and on day 14. On day 14, animals with paw volumes equal to the mean of paw volumes±SD were randomized into treatment groups. Rats which fell outside±1 SD were not used in the experiment. […] Dosing began on day 14, and continued until final assessment on day 21 post-adjuvant injection. […] This group has a slightly positive volume increase when paw volumes on day 21 are subtracted from day 0 values due to growth of the rat. […] Compounds reducing paw volume by at least about 30% compared to vehicle control group were considered effective in this test.

Structure (SMILES): CC(=O)Oc1c(C(C)(C)C)cc(/C=[N+](\[O-])C(C)(C)C)cc1C(C)(C)C [Example 1, α-(4-Acetoxy-3,5-di-tert-butylphenyl)-N-tert-butylnitrone]
- Inhibition of COX-1 [1]: did not significantly affect
- Inhibition of COX-2 [2]: did not significantly affect

- melting point: 202 to 222 °C
Structure (SMILES): CCC(=O)Oc1c(C(C)(C)C)cc(/C=[N+](\[O-])C(C)(C)C)cc1C(C)(C)C [Example 8, α-(4-propionyloxy-3,5-di-tert-butylphenyl)-N-tert-butylnitrone]

Structure (SMILES): CC(=O)Oc1c(C(C)(C)C)cc(/C=[N+](/C)[O-])cc1C(C)(C)C [Example 9, α-(4-acetoxy-3,5-di-tert-butylphenyl)-N-methylnitrone]
- melting point: 136 to 143 °C

Structure (SMILES): COc1ccc2c(c1)c(CC(=O)O)c(C)n2C(=O)c1ccc(Cl)cc1 [indomethacin]
- Paw volume compared to vehicle controls [3]: significantly reduced paw volume
